Consider 24 compounds from patent US20230167127A1, “COMPOUNDS AND THEIR USE IN THE TREATMENT OF BACTERIAL INFECTION” (Hoffmann-La Roche Inc., priority 2020, published 2023).

In general, IC50 refers to the concentration that gives 50% inhibition.

For the first assay, the system named is Escherichia coli ATCC 25922. Put plainly: 50% growth inhibitory concentration (IC50) determination, Iso-Sensitest broth dilution. The assay is classed as cell-based. As to conditions: Escherichia coli, ATCC25922, 16 h, strain Escherichia coli ATCC 25922; 10-point broth dilution, optical density at 600 nm over 16 h; read-out: Escherichia coli growth inhibition IC50. The essentials: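 Growth was tracked as optical density at 600 nm every 20 minutes for 16 h at 35±2° C. Compounds from DMSO stocks were serially diluted twofold over 10 points (e.g. 50–0.097 μM final) in Iso-Sensitest broth. Inhibition computed in log-phase growth to give IC50.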
On to `O=C1COc2ccc(N3CC(CCNCC4Cc5cc(OC6CNC6)cc(F)c5C4)OC3=O)nc2N1` (stereo not drawn) [Example 150, 6-[5-[2-[[6-(azetidin-3-yloxy)-4-fluoro-2,3-dihydro-1H-inden-2-yl]methylamino]ethyl]-2-oxo-1,3-oxazolidin-3-yl]-4H-pyrido[3,2-b][1,4]oxazin-3-one], for which the IC50 is under 97.7 nM. The same measure, in the same setting: with `N#Cc1cccc2c1CC(N[C@H]1C[C@@H](C3CN(c4ccc5c(n4)NC(=O)CO5)C(=O)O3)C1)C2` (stereo partly drawn) [Example 19, 2-[[cis-3-[2-oxo-3-(3-oxo-4H-pyrido[3,2-b][1,4]oxazin-6-yl)-1,3-oxazolidin-5-yl]cyclobutyl]amino]-2,3-dihydro-1H-indene-4-carbonitrile; formic acid] the figure was 449 nM. Still for that read-out and setting: with `CNC(=O)COc1ccc2c(c1Cl)CC(CNCCC1CN(c3cnc4c(n3)NC(=O)CO4)C(=O)O1)C2` (stereo not drawn) [Example 109, 2 2-[[4-chloro-2-[[2-[2-oxo-3-(3-oxo-4H-pyrazino[2,3-b][1,4]oxazin-6-yl)-1,3-oxazolidin-5-yl]ethylamino]methyl]-2,3-dihydro-1H-inden-5-yl]oxy]-N-methylacetamide] the figure was 98 nM. Still for that read-out and setting: with `COCCNCCOc1nc(C)c2c(c1C)CC(CNCCC1CN(c3ccc4c(n3)NC(=O)CO4)C(=O)O1)C2` (stereo not drawn) [Example 202, 6-[5-[2-[[3-[2-(2-methoxyethylamino)ethoxy]-1,4-dimethyl-6,7-dihydro-5H-cyclopenta[c]pyridin-6-yl]methylamino]ethyl]-2-oxo-1,3-oxazolidin-3-yl]-4H-pyrido[3,2-b][1,4]oxazin-3-one] the figure was 135 nM. Turning to `O=C1COc2ncc(N3CC(CCNCC4Cc5c(F)cc(OCc6cc[nH]n6)c(F)c5C4)OC3=O)nc2N1` (stereo not drawn) [Example 395, 6-[5-[2-[[4,7-difluoro-5-(1H-pyrazol-3-ylmethoxy)-2,3-dihydro-1H-inden-2-yl]methylamino]ethyl]-2-oxo-1,3-oxazolidin-3-yl]-4H-pyrazino[2,3-b][1,4]oxazin-3-one], the IC50 turned out to be 166 nM. On the same count and under the same terms, to `NC1c2cccc(Cl)c2CC1CNCCC1CN(c2ccc3c(n2)NC(=O)CS3)C(=O)O1` (racemic) [Example 246, 5-[2-[(rac-1,2-trans-1-amino-4-chloro-2,3-dihydro-1H-inden-2-yl)methylamino]ethyl]-3-(3-oxo-4H-pyrido[3,2-b][1,4]thiazin-6-yl)-1,3-oxazolidin-2-one] belongs under 97.7 nM. The same measure, in the same setting: to `NC1(COc2cc(Cl)c3c(c2)CC(CNCCC2CN(c4ccc5c(n4)NC(=O)CO5)C(=O)O2)C3)CC1` (stereo not drawn) [Example 178, 6-[5-[2-[[6-[(1-aminocyclopropyl)methoxy]-4-chloro-2,3-dihydro-1H-inden-2-yl]methylamino]ethyl]-2-oxo-1,3-oxazolidin-3-yl]-4H-pyrido[3,2-b][1,4]oxazin-3-one] belongs under 97.7 nM; to `Cc1ncc(F)c2c1CC(N)(CCNCC1CN(c3ccc4c(n3)NC(=O)CO4)C(=O)O1)C2` (stereo not drawn) [Example 280, 6-[5-[[2-(6-amino-4-fluoro-1-methyl-5,7-dihydrocyclopenta[c]pyridin-6-yl)ethylamino]methyl]-2-oxo-1,3-oxazolidin-3-yl]-4H-pyrido[3,2-b][1,4]oxazin-3-one], 844 nM; to `NC1c2cccc(Cl)c2CC1CNCCCC1CN(c2ccc3c(n2)NC(=O)CO3)C(=O)O1` (racemic) [Example 227, 6-[2-Oxo-5-[3-[[rac-1,2-trans-1-amino-4-chloro-2,3-dihydro-1H-inden-2-yl]methylamino]propyl]-1,3-oxazolidin-3-yl]-4H-pyrido[3,2-b][1,4]oxazin-3-one], 132 nM. With `O=C1COc2ccc(N3CC(CCNCC4Cc5cccc(Cl)c5C4)OC3=O)nc2N1` (stereo not drawn) [Example 1, 6-[5-[2-[(4-Chloro-2,3-dihydro-1H-inden-2-yl)methylamino]ethyl]-2-oxo-1,3-oxazolidin-3-yl]-4H-pyrido[3,2-b][1,4]oxazin-3-one; formic acid], the IC50 is under 97.7 nM. The same measure, in the same setting: with `NC1c2cccc(Cl)c2CC1NCCCC1CN(c2ccc3c(n2)NC(=O)CO3)C(=O)O1` (racemic) [Example 244, 6-[2-oxo-5-[3-[[rac-1,2-trans-1-amino-4-chloro-2,3-dihydro-1H-inden-2-yl]amino]propyl]-1,3-oxazolidin-3-yl]-4H-pyrido[3,2-b][1,4]oxazin-3-one] the figure was under 97.7 nM.

Regarding `Cc1nccc2c1CC(NCCCc1cn(-c3cnc4c(n3)NC(=O)CO4)c(=O)o1)C2` (single isomer, unassigned; enantiomer a) [Example 369, 6-[5-[3-[(1-Methyl-6,7-dihydro-5H-cyclopenta[c]pyridin-6-yl)amino]propyl]-2-oxo-1,3-oxazol-3-yl]-4H-pyrazino[2,3-b][1,4]oxazin-3-one; formic acid, Enantiomer A], the IC50 is 172 nM. Turning to `O=C1COc2ncc(N3CC(CCNCC4Cc5cc(OCC(=O)N6CCC6)cc(F)c5C4)OC3=O)nc2N1` (stereo not drawn) [Example 307, 6-[5-[2-[[6-[2-(azetidin-1-yl)-2-oxoethoxy]-4-fluoro-2,3-dihydro-1H-inden-2-yl]methylamino]ethyl]-2-oxo-1,3-oxazolidin-3-yl]-4H-pyrazino[2,3-b][1,4]oxazin-3-one; formic acid], the IC50 was found to be 359 nM. The same measure, in the same setting: with `N#Cc1cccc2c1CC(CNCCC1OC(=O)N(c3ccc4c(n3)NC(=O)CO4)C1CN)C2` (racemic) [Example 148, 2-[[2-[rac-4,5-cis-4-(aminomethyl)-2-oxo-3-(3-oxo-4H-pyrido[3,2-b][1,4]oxazin-6-yl)-1,3-oxazolidin-5-yl]ethylamino]methyl]-2,3-dihydro-1H-indene-4-carbonitrile; formic acid] the figure was 598 nM; with `Cc1noc(COc2cc(C#N)c3c(c2)CC(CNCCC2CN(c4cnc5c(n4)NC(=O)CO5)C(=O)O2)C3)n1` (stereo not drawn) [Example 387, 6-[(3-methyl-1,2,4-oxadiazol-5-yl)methoxy]-2-[[2-[2-oxo-3-(3-oxo-4H-pyrazino[2,3-b][1,4]oxazin-6-yl)-1,3-oxazolidin-5-yl]ethylamino]methyl]-2,3-dihydro-1H-indene-4-carbonitrile], under 97.7 nM; with `CC(C)(N)COc1cc(F)c2c(c1)CC(CNCC[C@H]1CN(c3cnc4c(n3)NC(=O)CO4)C(=O)O1)C2` (stereo partly drawn) [Example 341, 6-[(5S)-5-[2-[[6-(2-amino-2-methylpropoxy)-4-fluoro-2,3-dihydro-1H-inden-2-yl]methylamino]ethyl]-2-oxo-1,3-oxazolidin-3-yl]-4H-pyrazino[2,3-b][1,4]oxazin-3-one; formic acid], under 97.7 nM.

For the compound `CNC(=O)COc1nc(C#N)c2c(c1C)CC(CNCCC1CN(c3ccc4c(n3)NC(=O)CO4)C(=O)O1)C2` (stereo not drawn) [Example 221, 2-((1-Cyano-4-methyl-6-(((2-(2-oxo-3-(3-oxo-3,4-dihydro-2H-pyrido[3,2-b][1,4]oxazin-6-yl)oxazolidin-5-yl)ethyl)amino)methyl)-6,7-dihydro-5H-cyclopenta[c]pyridin-3-yl)oxy)-N-methylacetamide], the IC50 was 302 nM. The same measure, in the same setting: to `COc1cc2c(c(Cl)n1)CC(CNCCC1CN(c3ccc4c(n3)NC(=O)CO4)C(=O)O1)C2` (stereo not drawn) [Example 49, 6-[5-[2-[(1-chloro-3-methoxy-6,7-dihydro-5H-cyclopenta[c]pyridin-6-yl)methylamino]ethyl]-2-oxo-1,3-oxazolidin-3-yl]-4H-pyrido[3,2-b][1,4]oxazin-3-one] belongs 193 nM. With `Cc1nc(OCCCN)c(C)c2c1CC(CNCCC1CN(c3ccc4c(n3)NC(=O)CO4)C(=O)O1)C2` (stereo not drawn) [Example 176, 6-[5-[2-[[3-(3-aminopropoxy)-1,4-dimethyl-6,7-dihydro-5H-cyclopenta[c]pyridin-6-yl]methylamino]ethyl]-2-oxo-1,3-oxazolidin-3-yl]-4H-pyrido[3,2-b][1,4]oxazin-3-one], the IC50 stood at 483 nM. On the same count and under the same terms, with `Cc1c(OCC(=O)NC(C)C)nc(C#N)c2c1CC(CNCCC1CN(c3ccc4c(n3)NC(=O)CO4)C(=O)O1)C2` (stereo not drawn) [Example 222, 2-((1-cyano-4-methyl-6-(((2-(2-oxo-3-(3-oxo-3,4-dihydro-2H-pyrido[3,2-b][1,4]oxazin-6-yl)oxazolidin-5-yl)ethyl)amino)methyl)-6,7-dihydro-5H-cyclopenta[c]pyridin-3-yl)oxy)-N-isopropylacetamide] the figure was 717 nM; with `COCC(N)COc1cc(F)c2c(c1)CC(CNCCC1CN(c3ccc4c(n3)NC(=O)CO4)C(=O)O1)C2` (stereo not drawn) [Example 248, 6-[5-[2-[[6-(2-amino-3-methoxypropoxy)-4-fluoro-2,3-dihydro-1H-inden-2-yl]methylamino]ethyl]-2-oxo-1,3-oxazolidin-3-yl]-4H-pyrido[3,2-b][1,4]oxazin-3-one], under 97.7 nM.

Still in this assay, the particulars now being: strain Escherichia coli ATCC 25922; 10-point broth dilution, optical density at 600 nm over 16 h; read-out: Escherichia coli growth inhibition IC50.
As to `N#Cc1cccc2c1CC(CNC1CCC3C(C1)OC(=O)N3c1ccc3c(n1)NC(=O)CO3)C2` (racemic) [Example 31, 2-[[[rac-3a,7a-trans-6,7a-cis-2-oxo-3-(3-oxo-4H-pyrido[3,2-b][1,4]oxazin-6-yl)-3a,4,5,6,7,7a-hexahydro-1,3-benzoxazol-6-yl]amino]methyl]-2,3-dihydro-1H-indene-4-carbonitrile], the IC50 was determined as 156 nM.

For `O=C1COc2ccc(N3CC(CCNCC4Cc5cccc(Cl)c5C4)OC3=O)nc2N1` (single isomer, unassigned; isomer b) [Example 7, 6-[5-[2-[(4-chloro-2,3-dihydro-1H-inden-2-yl)methylamino]ethyl]-2-oxo-1,3-oxazolidin-3-yl]-4H-pyrido[3,2-b][1,4]oxazin-3-one, Isomer B; formic acid], the IC50 is under 97.7 nM.

For `Cc1nccc2c1CC(NCCCc1cn(-c3cnc4c(n3)NC(=O)CO4)c(=O)o1)C2` (single isomer, unassigned; enantiomer b) [Example 370, 6-[5-[3-[(1-Methyl-6,7-dihydro-5H-cyclopenta[c]pyridin-6-yl)amino]propyl]-2-oxo-1,3-oxazol-3-yl]-4H-pyrazino[2,3-b][1,4]oxazin-3-one; formic acid, Enantiomer B], the IC50 turned out to be 195 nM.
